Test results from US9695174B2, “Inhibitor of breast cancer resistance protein (BCRP)” (Millennium Pharmaceuticals, Inc., priority 2013, dated 2017).
Where two headings read alike, the source gives them in different places. Each block holds one compound with its values, some of them ahead of it.

What was measured:
[1] = target: BCRP efflux transporter (Homo sapiens (Human), UniProt Q9UNQ0); test: Bi-directional transport study in Caco-2 cells, inhibition of BCRP efflux of 3H-estrone-3-sulfate
Experimental: To determine potency of compounds on inhibition of transporters, bi-directional transport studies are performed in Caco-2 cells (American Type Culture Collection, Manassas, Va.) at 37° C. in air, according toXia et al. (Expression, localization and functional characteristics of breast cancer resistance protein in Caco-2 cells. Drug Met. Disp., 33 (5): 637-643 (2005)). Prior to each experiment, the confluent cell monolayers on Transwell™ inserts are washed and equilibrated for 30 minutes with transport media (Hank's balanced salt solution (HBSS) containing 10 mM of N-2-hydroxyethyl-piperazine-N′-2-ethanesulfonic acid (HEPES) and 10 mM of glucose, pH 7.4). […] At preset time points, 0.05 mL aliquot of receiving solutions are sampled from the basolateral side (for A-to-B transport) or from the apical side (for B-to-A transport), and replaced immediately with an equal amount of fresh transport media except at the last time point (the end of the incubation). The radioactivity in each sample is measured by 1450 MicroBeta TriLux, a microplate scintillation and luminescence counter (PerkinElmer Life Sciences). Radioactivity (^3H) of the dosing solution is measured and used to calculate the initial donor concentration of the substrate.

[2] = target: CYP2C19 (Homo sapiens (Human), UniProt P33261); test: CYP inhibition in human liver microsomes (S-mephenytoin); format: in vitro ADME; conditions: read-out: CYP inhibition IC50 2C19
Experimental: (§1) Reactions are initiated by the addition of β-NADPH (2 mM) and MgCl2 (3 mM) in 0.1-M potassium phosphate buffer, pH 7.4. Reactions are incubated for 12 minutes at 37° C., and then terminated by the addition of an equal volume of ACN containing 1-μM carbutamide (IS). The plates are refrigerated at approximately 4° C. for 15 minutes and then centrifuged in order to pellet the precipitated proteins. The supernatants are analyzed by LC/MS/MS for the amount of metabolite formed by each CYP isozyme.

[3] = test system: CYP3A4/5; test: CYP inhibition in human liver microsomes (midazolam); format: in vitro ADME; conditions: midazolam substrate, read-out: CYP inhibition IC50 3A-M
Experimental: as §1

[4] = target: P-gp transporter (Homo sapiens (Human), UniProt P08183); test: Bi-directional transport study in Caco-2 cells, inhibition of P-gp efflux of 3H-digoxin; format: cell-based
[5] = target: CYP2C9 (Homo sapiens (Human), UniProt P11712); test: CYP inhibition in human liver microsomes (diclofenac); format: in vitro ADME; conditions: read-out: CYP inhibition IC50 2C9
Experimental: as §1

[6] = target: CYP2D6 (Homo sapiens (Human), UniProt P10635); test: CYP inhibition in human liver microsomes (dextromethorphan); format: in vitro ADME; conditions: read-out: CYP inhibition IC50 2D6
Experimental: as §1

[7] = In vivo pharmacokinetic profile in Sprague-Dawley rats
Experimental: Approximately 200 μL of whole blood is collected from the jugular vein catheter of each animal into tubes containing the anticoagulant dipotassium ethylenediaminetetraacetic acid (K2EDTA) and is further processed into plasma at approximately 4° C. […] Pharmacokinetic analysis of the individual plasma concentration data is performed using a nonvalidated program (Phoenix™ WinNonlin®, Version 6.1 [Pharsight Corp (Mountain View, Calif., USA)]).

[8] = target: CYP1A2 (Homo sapiens (Human), UniProt P05177); test: CYP inhibition in human liver microsomes (phenacetin); format: in vitro ADME; conditions: read-out: CYP inhibition IC50 1A2
Experimental: as §1

[9] = target: CYP2C8 (Homo sapiens (Human), UniProt P10632); test: CYP inhibition in human liver microsomes (amodiaquine); format: in vitro ADME; conditions: read-out: CYP inhibition IC50 2C8
Experimental: as §1

[10] = read-out: IC50 on BCRP efflux transporter, Caco-2 cells, substrate 3H-Estrone-3-sulfate (26 nM)
[11] = Sprague-Dawley, rat, plasma, IV-JVC, 2 mg/kg
[12] = Sprague-Dawley, rat, plasma, PO-JVC, 20 mg/kg

Chain of BCRP efflux transporter (Q9UNQ0 whole entry): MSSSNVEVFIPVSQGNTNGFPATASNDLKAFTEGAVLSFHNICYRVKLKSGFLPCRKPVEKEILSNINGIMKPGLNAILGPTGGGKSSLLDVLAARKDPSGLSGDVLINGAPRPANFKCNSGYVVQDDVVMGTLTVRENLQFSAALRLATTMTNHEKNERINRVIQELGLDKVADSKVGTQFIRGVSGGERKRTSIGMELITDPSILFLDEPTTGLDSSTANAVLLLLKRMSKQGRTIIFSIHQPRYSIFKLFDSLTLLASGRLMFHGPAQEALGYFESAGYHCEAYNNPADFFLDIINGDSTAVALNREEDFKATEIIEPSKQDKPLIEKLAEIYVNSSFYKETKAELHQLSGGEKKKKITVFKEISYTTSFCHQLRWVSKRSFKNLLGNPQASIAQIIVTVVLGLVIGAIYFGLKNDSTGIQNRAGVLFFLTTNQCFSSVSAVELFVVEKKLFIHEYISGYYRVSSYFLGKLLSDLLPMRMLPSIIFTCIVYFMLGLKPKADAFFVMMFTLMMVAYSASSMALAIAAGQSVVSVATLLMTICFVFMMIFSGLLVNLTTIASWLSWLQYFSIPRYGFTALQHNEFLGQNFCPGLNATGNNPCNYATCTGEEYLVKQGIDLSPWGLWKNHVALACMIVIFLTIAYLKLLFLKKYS
Chain of CYP2D6 (P10635 whole entry): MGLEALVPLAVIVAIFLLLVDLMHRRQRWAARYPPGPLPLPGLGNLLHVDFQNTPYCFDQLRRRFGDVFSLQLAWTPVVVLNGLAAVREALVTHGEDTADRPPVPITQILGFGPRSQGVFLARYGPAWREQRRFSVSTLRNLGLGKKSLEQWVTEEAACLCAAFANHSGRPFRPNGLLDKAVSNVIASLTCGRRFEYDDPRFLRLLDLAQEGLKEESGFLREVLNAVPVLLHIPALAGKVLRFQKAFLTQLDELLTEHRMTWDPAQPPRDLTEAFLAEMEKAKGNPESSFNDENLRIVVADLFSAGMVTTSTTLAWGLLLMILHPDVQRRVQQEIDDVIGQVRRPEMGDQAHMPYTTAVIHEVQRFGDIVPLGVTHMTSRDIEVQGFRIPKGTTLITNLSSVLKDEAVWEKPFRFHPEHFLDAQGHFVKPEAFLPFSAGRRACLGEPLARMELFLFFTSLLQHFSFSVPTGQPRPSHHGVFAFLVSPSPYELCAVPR
Chain of CYP2C9 (P11712 whole entry): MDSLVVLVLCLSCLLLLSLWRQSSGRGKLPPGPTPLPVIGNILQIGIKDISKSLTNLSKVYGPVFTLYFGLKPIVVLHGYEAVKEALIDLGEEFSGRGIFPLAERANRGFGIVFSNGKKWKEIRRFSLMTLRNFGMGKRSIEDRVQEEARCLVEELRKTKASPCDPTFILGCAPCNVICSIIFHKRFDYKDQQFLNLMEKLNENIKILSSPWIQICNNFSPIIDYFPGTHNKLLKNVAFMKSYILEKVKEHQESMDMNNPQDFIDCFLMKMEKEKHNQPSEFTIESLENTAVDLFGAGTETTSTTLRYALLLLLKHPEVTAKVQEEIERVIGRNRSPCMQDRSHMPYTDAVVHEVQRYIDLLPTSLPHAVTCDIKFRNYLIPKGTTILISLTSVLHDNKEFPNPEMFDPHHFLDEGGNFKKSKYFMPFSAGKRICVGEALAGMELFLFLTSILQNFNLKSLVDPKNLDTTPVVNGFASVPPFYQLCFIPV
Chain of P-gp transporter (P08183 whole entry): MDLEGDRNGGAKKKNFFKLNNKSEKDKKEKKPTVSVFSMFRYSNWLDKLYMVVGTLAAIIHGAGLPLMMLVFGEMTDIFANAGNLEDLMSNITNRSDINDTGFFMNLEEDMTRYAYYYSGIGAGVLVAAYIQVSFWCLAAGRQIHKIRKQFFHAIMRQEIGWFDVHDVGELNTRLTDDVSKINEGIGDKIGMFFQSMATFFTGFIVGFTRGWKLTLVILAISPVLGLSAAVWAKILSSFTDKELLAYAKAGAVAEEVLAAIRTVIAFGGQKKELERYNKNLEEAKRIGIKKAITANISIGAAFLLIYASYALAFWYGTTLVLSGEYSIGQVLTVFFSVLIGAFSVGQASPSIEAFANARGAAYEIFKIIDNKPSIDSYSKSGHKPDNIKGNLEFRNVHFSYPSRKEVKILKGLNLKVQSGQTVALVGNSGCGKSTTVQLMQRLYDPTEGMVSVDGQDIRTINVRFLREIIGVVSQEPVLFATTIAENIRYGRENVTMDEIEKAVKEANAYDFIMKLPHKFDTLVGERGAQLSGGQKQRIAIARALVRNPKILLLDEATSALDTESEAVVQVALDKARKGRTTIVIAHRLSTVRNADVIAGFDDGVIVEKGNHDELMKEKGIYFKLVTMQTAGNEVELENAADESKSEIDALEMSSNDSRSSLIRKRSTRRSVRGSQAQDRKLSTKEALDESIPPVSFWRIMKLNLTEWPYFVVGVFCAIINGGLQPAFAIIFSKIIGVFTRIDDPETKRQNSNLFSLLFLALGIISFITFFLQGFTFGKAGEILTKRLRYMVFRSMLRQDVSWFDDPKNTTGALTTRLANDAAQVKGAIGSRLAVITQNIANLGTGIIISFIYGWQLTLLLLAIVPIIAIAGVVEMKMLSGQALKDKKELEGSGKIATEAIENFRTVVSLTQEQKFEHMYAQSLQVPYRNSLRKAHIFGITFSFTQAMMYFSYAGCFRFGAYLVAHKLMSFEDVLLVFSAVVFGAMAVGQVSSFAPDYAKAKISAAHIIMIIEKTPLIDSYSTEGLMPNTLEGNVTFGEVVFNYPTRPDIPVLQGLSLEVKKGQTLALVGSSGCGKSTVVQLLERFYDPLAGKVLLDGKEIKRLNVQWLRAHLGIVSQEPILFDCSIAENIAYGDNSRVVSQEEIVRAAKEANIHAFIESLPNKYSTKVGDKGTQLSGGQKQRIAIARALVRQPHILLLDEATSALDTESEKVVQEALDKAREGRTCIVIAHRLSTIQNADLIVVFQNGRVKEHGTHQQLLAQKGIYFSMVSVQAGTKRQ
Chain of CYP2C19 (P33261 whole entry): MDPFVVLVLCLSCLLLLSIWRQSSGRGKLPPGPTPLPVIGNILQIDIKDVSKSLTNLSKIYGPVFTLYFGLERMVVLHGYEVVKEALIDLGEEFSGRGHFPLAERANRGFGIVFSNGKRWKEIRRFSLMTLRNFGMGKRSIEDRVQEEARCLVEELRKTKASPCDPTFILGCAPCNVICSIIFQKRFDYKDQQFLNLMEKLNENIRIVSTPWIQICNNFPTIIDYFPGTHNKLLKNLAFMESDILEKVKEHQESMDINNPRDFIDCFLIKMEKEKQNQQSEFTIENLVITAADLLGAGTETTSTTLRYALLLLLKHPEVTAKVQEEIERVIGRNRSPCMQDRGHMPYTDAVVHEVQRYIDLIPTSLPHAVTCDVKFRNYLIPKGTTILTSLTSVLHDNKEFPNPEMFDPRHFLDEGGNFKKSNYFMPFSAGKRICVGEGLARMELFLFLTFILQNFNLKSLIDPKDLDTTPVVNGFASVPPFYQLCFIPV
Chain of CYP2C8 (P10632 whole entry): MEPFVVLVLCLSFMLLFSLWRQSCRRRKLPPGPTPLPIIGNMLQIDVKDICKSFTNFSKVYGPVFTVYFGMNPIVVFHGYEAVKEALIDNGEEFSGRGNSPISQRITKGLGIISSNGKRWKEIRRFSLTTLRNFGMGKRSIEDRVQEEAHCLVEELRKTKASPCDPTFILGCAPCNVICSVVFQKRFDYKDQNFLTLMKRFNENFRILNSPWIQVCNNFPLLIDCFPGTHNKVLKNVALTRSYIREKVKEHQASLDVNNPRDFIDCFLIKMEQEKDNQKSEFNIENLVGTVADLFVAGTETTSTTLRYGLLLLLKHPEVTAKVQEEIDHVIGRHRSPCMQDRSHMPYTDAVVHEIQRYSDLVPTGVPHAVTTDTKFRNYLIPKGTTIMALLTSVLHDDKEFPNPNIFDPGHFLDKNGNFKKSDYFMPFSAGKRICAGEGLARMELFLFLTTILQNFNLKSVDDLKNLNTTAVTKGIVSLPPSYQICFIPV
Chain of CYP1A2 (P05177 whole entry): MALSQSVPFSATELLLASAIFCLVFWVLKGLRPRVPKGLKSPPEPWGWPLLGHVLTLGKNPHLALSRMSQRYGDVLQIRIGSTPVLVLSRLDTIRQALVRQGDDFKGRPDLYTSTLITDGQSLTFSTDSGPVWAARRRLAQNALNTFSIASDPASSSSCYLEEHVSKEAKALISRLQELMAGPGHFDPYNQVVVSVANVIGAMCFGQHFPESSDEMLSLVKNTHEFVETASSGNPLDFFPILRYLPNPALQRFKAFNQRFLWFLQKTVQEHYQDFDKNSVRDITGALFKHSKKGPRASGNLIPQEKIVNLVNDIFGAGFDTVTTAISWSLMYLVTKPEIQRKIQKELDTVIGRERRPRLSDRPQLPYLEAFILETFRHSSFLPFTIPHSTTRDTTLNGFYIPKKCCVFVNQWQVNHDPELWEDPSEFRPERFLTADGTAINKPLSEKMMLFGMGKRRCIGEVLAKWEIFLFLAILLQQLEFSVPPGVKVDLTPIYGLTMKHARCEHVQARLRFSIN

IC50 [1, 10]: > 10 µM
Compound: COc1ccc2c3c([nH]c2c1)[C@H](CC(C)C)N1C(=O)[C@H](C)NC(=O)[C@H]1C3 [Compound 4, (3S,6S,12aR)-6-isobutyl-9-methoxy-3-methyl-2,3,6,7,12,12a-hexahydropyrazino[1′,2′:1,6]pyrido[3,4-b]indole-1,4-dione]

Compound: COc1cc2[nH]c3c(c2cc1OC)C[C@H]1C(=O)N[C@@H](C)C(=O)N1[C@H]3CC(C)C [Compound 8, (3S,6S,12aS)-6-isobutyl-9,10-dimethoxy-3-methyl-2,3,6,7,12,12a-hexahydropyrazino[1′,2′:1,6]pyrido[3,4-b]indole-1,4-dione]
IC50 [1, 10]: > 10 µM

Compound: COc1cc2[nH]c3c(c2cc1OC)C[C@@H]1C(=O)N[C@@H](C)C(=O)N1[C@H]3CC(C)C [Compound 8A, (3S,6S,12aR)-6-isobutyl-9,10-dimethoxy-3-methyl-2,3,6,7,12,12a-hexahydropyrazino[1′,2′:1,6]pyrido[3,4-b]indole-1,4-dione]
IC50 [1]: > 10 µM

IC50 [1, 10]: 1.98 µM
Compound: COc1cc2[nH]c3c(c2cc1C)C[C@H]1C(=O)N[C@@H](C)C(=O)N1[C@H]3CC(C)C [Compound 12, (3S,6S,12aS)-6-isobutyl-9-methoxy-3,10-dimethyl-2,3,6,7,12,12a-hexahydropyrazino[1′,2′:1,6]pyrido[3,4-b]indole-1,4-dione]

IC50 [1, 10]: > 10 µM
Compound: COc1cc2[nH]c3c(c2cc1C)C[C@@H]1C(=O)N[C@@H](C)C(=O)N1[C@H]3CC(C)C [Compound 12A, (3S,6S,12aR)-6-isobutyl-9-methoxy-3,10-dimethyl-2,3,6,7,12,12a-hexahydropyrazino[1′,2′:1,6]pyrido[3,4-b]indole-1,4-dione]

IC50 [2]: 18.5 µM
IC50 [1, 10]: 0.6 µM
IC50 at 12 min ([3]; pH 7.4, probe midazolam): > 30 µM
IC50 ([4]; Caco-2 cells, substrate 3H-digoxin): > 30 µM
Selectivity for BCRP over P-gp ([4]; conclusion from Table 2): selective BCRP inhibitor
IC50 [5]: > 30 µM
IC50 [6]: > 30 µM
Bioavailability (in words) [7]: high bioavailability
Clearance (in words) [7]: low clearance
CL ([7]; IV-JVC, 2 mg/kg): 25.7 mL/min/kg
Vss ([7]; IV-JVC, 2 mg/kg): 1.64 L/kg
Tmax ([7]; PO-JVC, 20 mg/kg): 1.3 h
AUC [7, 11]: 4 µM·h
half-life [7, 11]: 0.9 h
AUC [7, 12]: 49 µM·h
Cmax [7, 12]: 10.1 µM
bioavailability [7, 12]: 123%
half-life [7, 12]: 2 h
IC50 [8]: 15.4 µM
IC50 [9]: > 30 µM
Compound: COc1ccc2c3c([nH]c2c1)[C@H](CC(C)C)N1C(=O)[C@H](C)NC(=O)[C@@H]1C3 [Compound (I-1), (3S,6S,12aS)-6-isobutyl-9-methoxy-3-methyl-2,3,6,7,12,12a-hexahydropyrazino[1′,2′:1,6]pyrido[3,4-b]indole-1,4-dione]

Compound: CC(C)C[C@H]1c2[nH]c3ccccc3c2C[C@H]2C(=O)N[C@@H](CCC(=O)OC(C)(C)C)C(=O)N21 [Ko134, reference compound]
IC50 [1]: 3.25 µM

Compound: COc1ccc2c3c([nH]c2c1)[C@H](CC(C)C)N1C(=O)[C@H](CCC(=O)OC(C)(C)C)NC(=O)[C@@H]1C3 [Ko143, reference compound]
IC50 [2]: 14.7 µM
IC50 [3]: > 30 µM
IC50 [5]: 6 µM
IC50 [6]: > 30 µM
AUC0-24 hr ([7]; IV-JVC, 2 mg/kg): 0.0856 µM·h
CL ([7]; IV-JVC, 2 mg/kg): 1100 mL/min/kg
T1/2 ([7]; IV-JVC, 2 mg/kg): 0.2 h
Vss ([7]; IV-JVC, 2 mg/kg): 14.8 L/kg
AUC0-24 hr ([7]; PO-JVC, 50 mg/kg): 0.0722 µM·h
Cmax ([7]; PO-JVC, 50 mg/kg): 0.0214 µM
F % ([7]; PO-JVC, 50 mg/kg): 3%
Tmax ([7]; PO-JVC, 50 mg/kg): 2 h
IC50 [8]: 17.5 µM
IC50 [9]: > 30 µM
